Assay results as given in publication PMC10745768, “Stereoselective Synthesis and Antiproliferative Activity of Steviol-Based Diterpene 1,3-Aminoalcohol Regioisomers” (Molecules, 2023).
Like-named read-outs stand apart in the source and are kept apart here.

Experiments:
MDA-MB-231 cells [1] = test system: MDA-MB-231 cells; set-up: method as in earlier work; settings: ref 24 (Bai D, Int J Mol Sci 2023, 10.3390/ijms24021121), cited from earlier work
SiHa cells [2] = test system: SiHa cells; set-up: method as in earlier work; settings: ref 24 (Bai D, Int J Mol Sci 2023, 10.3390/ijms24021121), cited from earlier work
MCF-7 cells [3] = test system: MCF-7 cells; set-up: method as in earlier work; settings: ref 24 (Bai D, Int J Mol Sci 2023, 10.3390/ijms24021121), cited from earlier work
A2780 cells [4] = test system: A2780 cells; set-up: method as in earlier work; settings: ref 24 (Bai D, Int J Mol Sci 2023, 10.3390/ijms24021121), cited from earlier work
HeLa cells [5] = test system: HeLa cells; set-up: method as in earlier work; settings: ref 24 (Bai D, Int J Mol Sci 2023, 10.3390/ijms24021121), cited from earlier work
NIH/3T3 fibroblast cells [6] = test system: NIH/3T3 fibroblast cells; set-up: method as in earlier work; settings: ref 24 (Bai D, Int J Mol Sci 2023, 10.3390/ijms24021121), cited from earlier work
NIH/3T3 fibroblast cells [7] = experiment: MTT assay on non-malignant fibroblasts (selectivity); format: cell-based, murine; settings: Mus musculus, NIH3T3; for inhibition at 10 µM: NIH/3T3, 10 μM; for inhibition at 10 µM / inhibition at 30 µM: 72 h, read-out: Growth inhibition (%) ± SEM; for inhibition at 30 µM: NIH/3T3, 30 μM; for IC50: NIH/3T3, 72 h, read-out: calculated IC50
Summary of the method: (§1)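 Absorbance at 545 nm of DMSO-dissolved formazan after 4 h MTT labelling was the read-out. Compounds (10 and 30 µM) acted on overnight-attached cells for 72 h in serum-supplemented MEM. IC50 values were derived by sigmoid fitting; cisplatin served as reference.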

HeLa cells [8] = experiment: MTT antiproliferative assay, HeLa; format: cell-based; settings: Homo sapiens, 72 h; for inhibition at 10 µM / inhibition at 30 µM: read-out: Growth inhibition (%) ± SEM; for IC50: read-out: calculated IC50
Summary of the method: as §1

[9] = test system: cancer cells and fibroblasts (HeLa, SiHa, MCF-7, MDA-MB-231, A2780, NIH/3T3); experiment: MTT antiproliferative assay, cancer cells and fibroblasts; format: cell-based; settings: Fibroblast; range over all six cell lines; read-out: IC50 values against both the cancer cells and fibroblasts
Description: The in vitro anticancer effects of the presented compounds were assessed using the standard MTT [3-(4,5-dimethylthiazol2-yl)-2,5-diphenyltetrazolium bromide] assay on the following human cancer cell lines: cervical (HeLa and SiHa), breast (MCF-7 and MDA-MB-231) and ovarian cancer (A2780). The selectivity of the tested compounds was determined on murine embryonal fibroblast cells (NIH/3T3). The utilised cell lines were purchased from the European Collection of Cell Cultures (Salisbury, UK). The cells were cultivated in Eagle’s minimal essential medium supplemented with 10% fetal bovine serum, 1% non-essential amino acids and 1% antibiotic-antimycotic complex (penicillin, streptomycin, amphotericin B) at 37 °C in a humidified atmosphere containing 5% CO2. All media and supplements were purchased from Lonza Group Ltd. (Basel, Switzerland). The cancer cells were seeded into 96-well plates (5000 cells/well) and incubated overnight, and the test compounds were applied in two different concentrations (10 µM and 30 µM) and incubated for another 72 h under cell-culturing conditions. […] After 72 h, 20 µL of the 5 mg/mL MTT solution was added to each well, and the plates were incubated for 4 h. […] The absorbances were measured at 545 nm using a microplate reader (SPECTROStar Nano, BMG Labtech, Offenburg, Germany). […] The IC50 values were calculated using sigmoid curve fitting. […]

MCF-7 cells [10] = experiment: MTT antiproliferative assay, MCF-7; format: cell-based; settings: Homo sapiens, MCF7; for inhibition at 10 µM: MCF-7, 10 μM; for inhibition at 10 µM / inhibition at 30 µM: 72 h, read-out: Growth inhibition (%) ± SEM; for inhibition at 30 µM: MCF-7, 30 μM; for IC50: MCF-7, 72 h, read-out: calculated IC50
Summary of the method: as §1

MDA-MB-231 cells [11] = experiment: MTT antiproliferative assay, MDA-MB-231; format: cell-based; settings: Homo sapiens; for IC50: MDA-MB-231, 72 h, read-out: calculated IC50; for inhibition at 10 µM: MDA-MB-231, 10 μM; for inhibition at 10 µM / inhibition at 30 µM: 72 h, read-out: Growth inhibition (%) ± SEM; for inhibition at 30 µM: MDA-MB-231, 30 μM
Summary of the method: as §1

A2780 cells [12] = experiment: MTT antiproliferative assay, A2780; format: cell-based; settings: Homo sapiens; for IC50: A2780, 72 h, read-out: calculated IC50; for inhibition at 10 µM: A2780, 10 μM; for inhibition at 10 µM / inhibition at 30 µM: 72 h, read-out: Growth inhibition (%) ± SEM; for inhibition at 30 µM: A2780, 30 μM
Summary of the method: as §1

SiHa cells [13] = experiment: MTT antiproliferative assay, SiHa; format: cell-based; settings: Homo sapiens, 72 h; for inhibition at 10 µM / inhibition at 30 µM: read-out: Growth inhibition (%) ± SEM; for IC50: read-out: calculated IC50
Summary of the method: as §1

IC50 (HeLa cells [8]) [µM]	IC50 (MCF-7 cells [10]) [µM]	IC50 (MDA-MB-231 cells [11]) [µM]	IC50 (A2780 cells [12]) [µM]	SMILES	inhibition at 10 µM (NIH/3T3 fibroblast cells [7]) [%]	inhibition at 30 µM (NIH/3T3 fibroblast cells [7]) [%]	IC50 (NIH/3T3 fibroblast cells [7]) [µM]	inhibition at 10 µM (HeLa cells [8]) [%]	inhibition at 30 µM (HeLa cells [8]) [%]	IC50 [9] [µM]	inhibition at 10 µM (MCF-7 cells [10]) [%]	inhibition at 30 µM (MCF-7 cells [10]) [%]	inhibition at 10 µM (MDA-MB-231 cells [11]) [%]	inhibition at 30 µM (MDA-MB-231 cells [11]) [%]	inhibition at 10 µM (A2780 cells [12]) [%]	inhibition at 30 µM (A2780 cells [12]) [%]	inhibition at 10 µM (SiHa cells [13]) [%]	inhibition at 30 µM (SiHa cells [13]) [%]	IC50 (SiHa cells [13]) [µM]	further results
–	–	–	–	N.N.[Cl][Pt][Cl] [Cisplatin, cisplatin]	–	–	–	–	–	–	–	–	–	–	–	–	–	–	–	Growth inhibition (%) ± SEM (MDA-MB-231 cells [1]; MDA-MB-231, 10 μM): 67.51 ± 1.01%; Growth inhibition (%) ± SEM (MDA-MB-231 cells [1]; MDA-MB-231, 30 μM): 87.75 ± 1.10%; Growth inhibition (%) ± SEM (SiHa cells [2]; 10 μM): 60.98 ± 0.92%; Growth inhibition (%) ± SEM (SiHa cells [2]; 30 μM): 88.95 ± 0.53%; Growth inhibition (%) ± SEM (MCF-7 cells [3]; MCF-7, 10 μM): 53.03 ± 2.29%; Growth inhibition (%) ± SEM (MCF-7 cells [3]; MCF-7, 30 μM): 86.90 ± 1.22%; Growth inhibition (%) ± SEM (A2780 cells [4]; A2780, 10 μM): 83.57 ± 1.21%; Growth inhibition (%) ± SEM (A2780 cells [4]; A2780, 30 μM): 95.02 ± 0.28%; Growth inhibition (%) ± SEM (HeLa cells [5]; 10 μM): 42.61 ± 2.33%; Growth inhibition (%) ± SEM (HeLa cells [5]; 30 μM): 99.93 ± 0.26%; Growth inhibition (%) ± SEM (NIH/3T3 fibroblast cells [6]; NIH/3T3, 10 μM): 73.88 ± 1.63%; Growth inhibition (%) ± SEM (NIH/3T3 fibroblast cells [6]; NIH/3T3, 30 μM): 97.10 ± 0.15%
5.07	1.59	3.28	4.39	COC(=O)[C@]1(C)CCC[C@@]2(C)[C@@H]3CC[C@@]4(CNCc5ccc(F)cc5)C[C@]3(CC[C@@H]21)C[C@H]4O [Compound 23, (4R,4aS,6aR,8R,9S,11aR,11bS)-Methyl 9-(((4-fluorobenzyl)amino)methyl)-8-hydroxy-4,11b-dimethyltetradecahydro-6a,9-methanocyclohepta[a]naphthalene-4-carboxylate]	81.8 ± 3.07	93.62 ± 0.77	5.15	70.1 ± 1.97	90.41 ± 0.78	1.59 to 5.15	95.81 ± 0.84	95.3 ± 1.05	92.99 ± 0.39	91.4 ± 0.39	80 ± 1.6	95.71 ± 0.58	68.1 ± 1.85	80.5 ± 3.16	4.41	–
3.09	1.04	2.3	3.78	COC(=O)[C@]1(C)CCC[C@@]2(C)[C@@H]3CC[C@@]4(CNCc5ccc(OC)cc5)C[C@]3(CC[C@@H]21)C[C@H]4O [Compound 32, (4R,4aS,6aR,8R,9S,11aR,11bS)-Methyl 8-hydroxy-9-(((4-methoxybenzyl)amino)methyl)-4,11b-dimethyltetradecahydro-6a,9-methanocyclohepta[a]naphthalene-4-carboxylate]	96.93 ± 0.92	96.6 ± 1.05	3.71	97.09 ± 0.79	97.18 ± 0.76	1.04 to 5.77	99.59 ± 0.13	99.88 ± 0.23	97.12 ± 0.6	96.3 ± 1.02	97.94 ± 0.6	98.01 ± 0.6	95.6 ± 2.12	96.5 ± 1.09	5.77	–
